Molecular target: T1, PDE4 (homogenate of guinea pig lungs or hearts)
T1 construct: gene PDE4A; native enzyme activity in lung or heart homogenate; subtype not resolved; other PDE families may be present
Assay: [3H]-cAMP hydrolysis, two-step radioassay, Lineweaver-Burk
Assay type: biochemical, Cavia porcellus
Conditions: cAMP substrate; 3 mM MgCl2; pH 7.4; 37°C; competitive; lung or heart homogenate

SMILES: COc1ccc([C@@H]2CC(=O)c3c(O)cc(O)cc3O2)cc1O [hesperetin, 5,7,3′-trihydroxy-4′-methoxyflavanone]
- Ki: 45.6 ± 2.3 µM
